Read-outs that look alike come from different tables or passages of the source.
Tests used:
GVIA iPLA2 = target: T1, GVIA iPLA2 (Homo sapiens, UniProt O60733); conditions: cited from earlier work
T1 sequence (O60733 1-806): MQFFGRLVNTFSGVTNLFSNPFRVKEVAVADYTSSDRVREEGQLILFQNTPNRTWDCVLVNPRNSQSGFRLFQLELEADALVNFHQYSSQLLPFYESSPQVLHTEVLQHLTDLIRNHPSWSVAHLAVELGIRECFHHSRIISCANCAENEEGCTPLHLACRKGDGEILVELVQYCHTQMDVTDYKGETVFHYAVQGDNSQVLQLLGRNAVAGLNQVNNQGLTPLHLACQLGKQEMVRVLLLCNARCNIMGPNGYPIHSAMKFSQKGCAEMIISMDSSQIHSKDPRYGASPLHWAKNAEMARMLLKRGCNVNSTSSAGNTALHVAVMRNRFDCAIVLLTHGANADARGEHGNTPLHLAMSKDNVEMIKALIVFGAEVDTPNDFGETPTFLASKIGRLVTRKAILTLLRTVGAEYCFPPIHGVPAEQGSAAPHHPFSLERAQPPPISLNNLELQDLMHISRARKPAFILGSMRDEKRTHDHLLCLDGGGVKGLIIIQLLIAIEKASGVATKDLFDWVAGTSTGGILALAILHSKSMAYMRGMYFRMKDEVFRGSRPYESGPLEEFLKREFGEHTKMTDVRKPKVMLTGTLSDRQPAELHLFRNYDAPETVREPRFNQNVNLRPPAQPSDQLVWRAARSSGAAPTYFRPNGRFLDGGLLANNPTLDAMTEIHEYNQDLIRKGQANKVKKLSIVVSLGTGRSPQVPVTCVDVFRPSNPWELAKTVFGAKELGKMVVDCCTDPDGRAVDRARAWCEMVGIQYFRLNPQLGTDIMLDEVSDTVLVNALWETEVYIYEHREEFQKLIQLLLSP

GV sPLA2 = target: T2, GV sPLA2 (Homo sapiens, UniProt P39877); conditions: cited from earlier work
T2 sequence (P39877 21-138): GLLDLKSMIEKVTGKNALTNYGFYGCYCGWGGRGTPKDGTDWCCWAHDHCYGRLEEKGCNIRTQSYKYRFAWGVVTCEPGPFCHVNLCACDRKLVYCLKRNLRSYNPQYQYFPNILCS

GIVA cPLA2 = target: T3, GIVA cPLA2 (Homo sapiens, UniProt P47712); conditions: cited from earlier work
T3 sequence (P47712 1-749): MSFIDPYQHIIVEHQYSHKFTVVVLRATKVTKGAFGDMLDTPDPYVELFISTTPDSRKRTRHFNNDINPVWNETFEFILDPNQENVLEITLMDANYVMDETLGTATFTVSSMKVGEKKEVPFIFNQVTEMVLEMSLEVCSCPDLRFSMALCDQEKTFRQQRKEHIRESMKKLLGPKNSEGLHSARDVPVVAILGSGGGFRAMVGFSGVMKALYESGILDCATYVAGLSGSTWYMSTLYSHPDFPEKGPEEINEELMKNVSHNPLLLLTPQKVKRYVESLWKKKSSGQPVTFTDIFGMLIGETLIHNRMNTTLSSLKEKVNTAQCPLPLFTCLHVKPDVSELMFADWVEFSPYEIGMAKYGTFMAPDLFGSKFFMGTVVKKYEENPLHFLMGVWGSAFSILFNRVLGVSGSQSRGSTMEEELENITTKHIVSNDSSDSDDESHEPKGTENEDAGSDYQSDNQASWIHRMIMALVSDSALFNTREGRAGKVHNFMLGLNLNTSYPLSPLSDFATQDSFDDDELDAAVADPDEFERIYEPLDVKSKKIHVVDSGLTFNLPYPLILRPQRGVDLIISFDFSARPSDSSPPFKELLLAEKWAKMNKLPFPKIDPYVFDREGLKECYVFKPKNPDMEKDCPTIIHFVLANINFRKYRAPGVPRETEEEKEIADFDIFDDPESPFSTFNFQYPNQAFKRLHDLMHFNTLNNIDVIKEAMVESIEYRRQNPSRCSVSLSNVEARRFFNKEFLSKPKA

HAoSMCs = assay: Relative mRNA expression of osteogenic markers MSX2, CBFA1, ALPL in HAoSMCs; type: cell-based, human; conditions: 10 µM arachidonic acid, 24 hours, vs. control
Description: Primary HAoSMCs were cultured in Waymouth's MB 752/1 medium and Ham's F-12 nutrient mixture (1:1, Gibco, Life Technologies) supplemented with 10% FBS (Gibco, Life Technologies) and 100 U/ml penicillin and 100 μg/ml streptomycin. HAoSMCs were grown to confluency and used in all experiments from passages 4 to 10. Calcification was induced with 3 mM sodium phosphate buffer as calcification medium. Treatment was performed over a period of 11 days. Figs. 1C-E are diagrams indicating relative mRNA expression in HAoSMCs of MSX2 (Fig. 1C), CBFA1 (Fig. 1D) and ALPL (Fig. 1E) as scatter dot plots and as arithmetic means ± SEM (n=6; arbitrary units, a.u.). mRNA expression was determined following treatment of the HAoSMCs for 24 hours with control or with 2 mM β-glycerophosphate (Pi) without or with additional treatment with 10 μM AACOCF3. **(p<0.01), ***(p<0.001) statistically significant vs. control treated […]<0.001) statistically significant vs. HAoSMCs treated with Pi alone. […] Conditions were as above (for Fig 2), namely primary HAoSMCs were cultured in Waymouth's MB 752/1 medium and Ham's F-12 nutrient mixture (1:1, Gibco, Life Technologies) supplemented with 10% FBS (Gibco, Life Technologies) and 100 U/ml penicillin and 100 μg/ml streptomycin. HAoSMCs were grown to confluency and used in all experiments from passages 4 to 10. […]

human platelets = conditions: read-out: IC50, arachidonic acid mobilization, cited from earlier work
[1] = test system: Ca2+-independent group VI iPLA2; conditions: cited from earlier work

Compound | GVIA iPLA2 % Inhibition (GVIA iPLA2) [%] | GV sPLA2 % Inhibition (GV sPLA2) [%] | GIVA cPLA2 % Inhibition (GIVA cPLA2) [%] | GIVA cPLA2 X1(50) (GIVA cPLA2) | other results
CCCCCCCCCCCCCCC(=O)C(=O)O [12e] | <25 | <25 | – | – | –
CC(C)(C)OC(=O)CCCOC(=O)C(=O)CCCCc1ccccc1 [16c] | <25 | <25 | <25 | – | –
O=C(O)CCCOC(=O)C(=O)CCCCc1ccc(-c2ccccc2)cc1 [17d] | <25 | <25 | >95 | 0.00068 ± 0.00007 | –
O=C(O)CCCCOC(=O)C(=O)CCCCc1ccc(-c2ccccc2)cc1 [17f] | – | <25 | > 95 | 0.000078 ± 0.00001 | –
O=C(O)CCCOC(=O)C(=O)CCCc1ccc(-c2ccccc2)cc1 [17g] | – | <25 | > 95 | 0.0065 ± 0.002 | –
CCCCC/C=C\C/C=C\C/C=C\C/C=C\CCCC(=O)O [Arachidonic acid, arachidonic acid] | – | – | – | – | osteoinductive signaling (MSX2, CBFA1, ALPL relative mRNA expression) (HAoSMCs): induces osteoinductive signaling
CCCCCCCCCCOc1ccc(OCC(=O)Cn2cc(C(=O)OC)c3cc(C(=O)O)ccc32)cc1 [CAY10502, 1-[3-(4-decoxyphenoxy)-2-oxopropyl]-3-methoxycarbonylindole-5-carboxylic acid] | – | – | – | – | IC50 (human platelets; A23187-stimulated human platelets): 570 nM; IC50 (human platelets; TPA-stimulated human platelets): 0.9 nM
CCOC(=O)CCCOC(=O)C(=O)CCCCc1ccccc1 [compound 19] | <25 | <25 | – | – | –
CCCCCCCCCCCCCCC(O)C(=O)OCCCC(=O)O (centres unmarked) [compound 20] | <25 | – | <25 | – | –
Palmityl trifluoromethylketone [PACOCF3] | – | – | – | – | IC50 [1]: 3800 nM

Reference: patent EP3677259A1, “USE OF ARACHIDONYL TRIFLUOROMETHYL KETONE” (Mosaiques Diagnostics And Therapeutics AG, priority 2019, dated 2020)
